We go through two compounds from patent US20240190851A1, “FURAN FUSED RING-SUBSTITUTED GLUTARIMIDE COMPOUND” (MEDSHINE DISCOVERY INC., priority 2021, published 2024).

Counter-ions that a name gives are not always drawn.

This assay concerns human prostate cancer LNCaP cells. In words: Antiproliferative effect in LNCaP cells (CellTiter-Glo, 6 days). It counts as cell-based. The conditions noted are these: 144 h. The procedure: In this experiment, the inhibitory effect of the test compound on cell proliferation in human prostate cancer LNCaP cells was detected.
The tumor cell lines were cultured in a 37° C., 5% CO2 incubator under the above culture conditions. Regular passage, and cells in logarithmic growth phase were taken for plating.
2. Cell Plating • (1) Cells were stained with trypan blue and viable cells were counted; • (2) the cell concentration was adjusted to an appropriate concentration;
• (3) 90 μL of cell suspension per well was added to the culture plate as shown in the table above, and cell-free culture medium was added to the blank control well; • (4) the culture plate was cultured overnight in a 37° C., 5% CO2 incubator with 100% relative humidity.
Preparation of stock solution storage plate with 400 times the initial concentration of the compound: The compound was serially diluted with DMSO from the highest concentration to the lowest concentration. The solution was prepared as needed each time.
Preparation of Working Solution with 10 Times the Initial Concentration of Compounds and Cell Treatment with Compounds • (1) To a V-bottom 96-well plate was added 78 μL of cell culture medium, and 2 μL of compound was pipetted from a stock solution storage plate with 400 times the initial concentration of the compound and added to the cell culture medium of the 96-well plate. To vehicle control and blank control was added 2 μL of DMSO. After the compound or DMSO was added, blowing with a pipette and mixing well were carried out. • (2) Administration: 10 μL of a working solution with 10 times the initial concentration of the compound was added to the cell culture plate. To vehicle control and blank control was added 10 μL of DMSO-cell culture medium mixture. • (3) The 96-well plate was returned to the incubator and cultured for 6 days.
The following steps were performed according to the instructions of Promega CellTiter-Glo luminescent cell viability assay kit (Promega-G7573). • (1) CellTiter-Glo buffer was melted and brought to room temperature; • (2) CellTiter-Glo substrate was brought to room temperature; • (3) CellTiter-Glo working solution was prepared by adding 100 mL of CellTiter-Glo buffer to a vial of CellTiter-Glo substrate to dissolve the substrate; • (4) the mixture was slowly vortexed and shaken to be fully dissolved; • (5) the cell culture plate was taken out and left for 30 minutes to equilibrate to room temperature; • (6) 50 μL of CellTiter-Glo working solution was added per well (equal to half the volume of cell culture medium per well). The cell plate was wrapped in aluminum foil to be protected from light; • (7) the culture plate was shaken on an orbital shaker for 2 minutes to induce cell lysis; (8) the culture plate was left at room temperature for 10 minutes to stabilize the luminescent signal; • (9) the luminescent signal was detected on a 2104 EnVision plate reader.
The inhibition rate (IR) of the test compound was calculated using the following formula: IR (%)=(RLU vehicle control−RLU compound)/(RLU vehicle control−RLU blank control)×100%. The inhibition rates of compounds at different concentrations were calculated in Excel, and then GraphPad Prism software was used to plot inhibition curves and calculate relevant parameters, including minimum inhibition rate, maximum inhibition rate, and ICSO.
A general note: ATP-based viability assays read luminescence as a measure of living cells.

`N#Cc1ccc(O[C@H]2CC[C@H](NC(=O)c3ccc(N4CCC(CN5CCN(c6cccc7c6ccc6occ(C8CCC(=O)NC8=O)c67)CC5)CC4)nn3)CC2)cc1Cl` (some centres unmarked) [Hydrochloride of WX015] yielded an IC50 of 45 nM.
`CC1(C)C(=O)N(c2ccc(C#N)c(C(F)(F)F)c2)C(=S)N1c1ccc(OCCN2CCN(CC(=O)Nc3ccc4c(C5CCC(=O)NC5=O)coc4c3)CC2)c(F)c1` (centres unmarked) [WX002] yielded an IC50 of 46 nM.

As a reminder, the IC50 is the concentration that gives 50% inhibition. A higher IC50 goes with a need for much substance.
